Data reported in patent US20220298138A1, “ENZYME INHIBITORS” (KALVISTA PHARMACEUTICALS LIMITED, priority 2019, published 2022).

Experiments:
[1] = target: T1, Human FXIa (Homo sapiens, UniProt P03951); assay: FXIa inhibitory activity in vitro (fluorogenic substrate Z-Gly-Pro-Arg-AFC), selectivity; type: biochemical; conditions: category scale, 25° C.
T1 construct: Human FXIa (Enzyme Research Laboratories) was incubated; purchased Enzyme Research Laboratories
Method: Determination of the % Inhibition for FXIa
Human FXIa (Enzyme Research Laboratories) was incubated at 25° C. with the fluorogenic substrate Z-Gly-Pro-Arg-AFC and various concentrations of the test compound. Residual enzyme activity (initial rate of reaction) was determined by measuring the change in fluorescence at 410 nm and the IC50 value for the test compound was determined.

[2] = target: T2, Human Factor XIIa (Homo sapiens, UniProt P00748); assay: Factor XIIa inhibitory activity in vitro (fluorogenic substrate H-DPro-Phe-Arg-AFC); type: biochemical; conditions: 25° C., class symbols, read-out: Human FXIIa IC50
T2 construct: purchased Enzyme Research Laboratories
T2 sequence (P00748 373-615 limits assumed): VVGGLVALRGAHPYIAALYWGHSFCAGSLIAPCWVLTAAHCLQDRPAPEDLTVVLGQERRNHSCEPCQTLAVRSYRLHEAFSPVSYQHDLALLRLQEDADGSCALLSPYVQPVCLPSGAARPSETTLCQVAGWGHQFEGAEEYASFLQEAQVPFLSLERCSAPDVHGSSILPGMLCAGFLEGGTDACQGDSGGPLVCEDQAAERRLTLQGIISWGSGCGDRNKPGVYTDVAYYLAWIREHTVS
Summary of the method: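 Enzyme incubated at 25° C with fluorogenic substrate H-DPro-Phe-Arg-AFC and a range of compound concentrations. Residual activity taken as initial reaction rate from […], giving IC50.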

T1 sequence (P03951 388-625 limits assumed): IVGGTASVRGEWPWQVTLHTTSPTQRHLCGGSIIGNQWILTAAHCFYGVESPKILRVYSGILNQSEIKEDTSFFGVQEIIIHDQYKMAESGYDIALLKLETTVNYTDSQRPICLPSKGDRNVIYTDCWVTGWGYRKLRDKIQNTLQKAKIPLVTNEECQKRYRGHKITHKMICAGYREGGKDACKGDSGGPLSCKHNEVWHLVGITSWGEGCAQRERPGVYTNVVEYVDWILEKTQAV
T1 sequence (P03951 19-387 partner limits assumed): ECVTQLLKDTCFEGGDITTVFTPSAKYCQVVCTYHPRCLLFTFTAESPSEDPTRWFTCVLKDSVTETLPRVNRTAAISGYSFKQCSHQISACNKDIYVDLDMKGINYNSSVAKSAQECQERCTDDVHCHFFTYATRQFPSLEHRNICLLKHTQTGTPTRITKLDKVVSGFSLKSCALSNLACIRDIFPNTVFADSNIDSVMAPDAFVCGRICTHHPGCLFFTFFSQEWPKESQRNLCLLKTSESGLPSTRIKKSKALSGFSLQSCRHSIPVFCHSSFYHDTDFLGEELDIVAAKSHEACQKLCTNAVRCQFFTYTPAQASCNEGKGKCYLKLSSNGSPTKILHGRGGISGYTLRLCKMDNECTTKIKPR

In the case of CC(C)N[C@H](CCc1ccccc1)C(=O)N[C@@H](C)C(=O)NCc1cc2c(N)nccc2o1 [Example 9.24], the IC50 [1] is reported as greater than 40 µM and the IC50 [2] is reported as 0.1 to 0.279 µM.
CC(C)N[C@H](CCc1ccccc1)C(=O)N[C@@H](C)C(=O)NCc1cc2c(N)nccc2s1 [Example 9.27, (2R)—N-[(1S)-1-[({4-Aminothieno[3,2-c]pyridin-2-yl}methyl)carbamoyl]ethyl]-2-(isopropylamino)-4-phenylbutanamide] showed an IC50 [1] greater than 40 µM and an IC50 [2] of 0.03 to 0.1 µM.
In the case of CC(C)N[C@H](CCCCN1CCCCC1)C(=O)N1CC[C@H]1C(=O)NCc1ccc2[nH]cc(Cl)c2c1 [Example 10.01, (2S)—N-[(3-Chloro-1H-indol-5-yl)methyl]-1-[(2R)-2-(isopropylamino)-6-(piperidin-1-yl)hexanoyl]azetidine-2-carboxamide], the IC50 [1] is reported as 10 to 40 µM and the IC50 [2] is reported as 0.03 to 0.1 µM.
For N[C@H](CCc1ccccc1)C(=O)N1CCC1C(=O)NCc1cnc2[nH]cc(Cl)c2c1 (stereo partly shown) [Example 10.02], the IC50 [1] was greater than 40 µM and the IC50 [2] was 0.28 to 1 µM.
N[C@H](CCCCN1CCOCC1)C(=O)N1CC[C@H]1C(=O)NCc1cnc2[nH]cc(Cl)c2c1 [Example 10.03] showed an IC50 [1] greater than 40 µM and an IC50 [2] of 0.28 to 1 µM.
For N[C@H](CCCCN1CCC(F)(F)C1)C(=O)N1CC[C@H]1C(=O)NCc1cnc2[nH]cc(Cl)c2c1 [Example 10.04], the IC50 [1] was greater than 40 µM and the IC50 [2] was 0.28 to 1 µM.
CC(C)N[C@H](CCCCN1CCOCC1)C(=O)N1CC[C@H]1C(=O)NCc1cnc2[nH]cc(Cl)c2c1 [Example 10.05] gave an IC50 [1] greater than 40 µM and an IC50 [2] of 0.28 to 1 µM.
N[C@H](CCCCO)C(=O)N1CC[C@H]1C(=O)NCc1ccc2[nH]cc(Cl)c2c1 [Example 10.06] was tested, and the IC50 [1] was greater than 40 µM and the IC50 [2] was 10 to 40 µM.
In the case of CC(C)N[C@H](CCCCN1CCCCC1)C(=O)N1C[C@@H](c2ccc(F)c(F)c2)[C@H]1C(=O)NCc1ccc2[nH]cc(Cl)c2c1 [Example 10.07], the IC50 [1] is reported as greater than 40 µM and the IC50 [2] is reported as 0.28 to 1 µM.
For N[C@H](CCCCN1CCN(c2ncccn2)CC1)C(=O)N1CC[C@H]1C(=O)NCc1ccc2[nH]cc(Cl)c2c1 [Example 10.08], the IC50 [1] was greater than 40 µM and the IC50 [2] was 3 to 10 µM.
With N[C@H](CCCCN1CCc2ccccc2C1)C(=O)N1CC[C@H]1C(=O)NCc1ccc2[nH]cc(Cl)c2c1 [Example 10.09] the IC50 [1] was greater than 40 µM and the IC50 [2] was 1 to 3 µM.
With N[C@H](CCCCN1Cc2ccccc2C1)C(=O)N1CC[C@H]1C(=O)NCc1ccc2[nH]cc(Cl)c2c1 [Example 10.10] the IC50 [1] was greater than 40 µM and the IC50 [2] was 1 to 3 µM.
In the case of CC(C)N[C@H](CCCCN1Cc2ccccc2C1)C(=O)N1CC[C@H]1C(=O)NCc1ccc2[nH]cc(Cl)c2c1 [Example 10.11], the IC50 [1] is reported as 10 to 40 µM and the IC50 [2] is reported as 0.28 to 1 µM.
Work on N[C@H](CCCCN1CCC(F)(F)CC1)C(=O)N1CC[C@H]1C(=O)NCc1ccc2[nH]cc(Cl)c2c1 [Example 10.12] yielded an IC50 [1] greater than 40 µM and an IC50 [2] of 1 to 3 µM.
N[C@H](CCCCn1ccnc1)C(=O)N1CC[C@H]1C(=O)NCc1ccc2[nH]cc(Cl)c2c1 [Example 10.13] showed an IC50 [1] greater than 40 µM and an IC50 [2] of 3 to 10 µM.
N[C@H](CCCCN1CCc2ccccc21)C(=O)N1CC[C@H]1C(=O)NCc1ccc2[nH]cc(Cl)c2c1 [Example 10.14] gave an IC50 [1] greater than 40 µM and an IC50 [2] of 10 to 40 µM.
Work on N[C@H](CCCCN1CCCC(F)(F)C1)C(=O)N1CC[C@H]1C(=O)NCc1ccc2[nH]cc(Cl)c2c1 [Example 10.15] yielded an IC50 [1] greater than 40 µM and an IC50 [2] of 3 to 10 µM.
O=C(NCc1ccc2[nH]cc(Cl)c2c1)[C@@H]1CCN1C(=O)CCCCCN1CCCCC1 [Example 10.16] showed an IC50 [1] greater than 40 µM and an IC50 [2] of 10 to 40 µM.
CC(C)N[C@H](COc1ccccc1)C(=O)N1CCC1C(=O)NCc1ccc2[nH]cc(Cl)c2c1 (stereo partly shown) [Example 10.17] showed an IC50 [1] of 10 to 40 µM and an IC50 [2] of 10 to 40 µM.
For CC(C)N[C@H](Cc1c[nH]c2ccccc12)C(=O)N1CC[C@H]1C(=O)NCc1ccc2[nH]cc(Cl)c2c1 [Example 10.18], the IC50 [1] was 10 to 40 µM and the IC50 [2] was 10 to 40 µM.
Nc1nccc2cc(CNC(=O)[C@H](Cc3ccc(F)c(F)c3)NC(=O)[C@H](N)CCCCN3CCCCC3)ccc12 [Example 12.01] gave an IC50 [1] greater than 40 µM and an IC50 [2] of 0.03 to 0.1 µM.
Work on CC(C)N[C@H](CCCCN1CCCCC1)C(=O)N[C@@H](C)C(=O)NCc1ccc2c(N)nccc2c1 [Example 12.02] yielded an IC50 [1] of 10 to 40 µM and an IC50 [2] of 0.28 to 1 µM.
CC(C)N[C@H](CCCCN1CCCCC1)C(=O)N[C@@H](Cc1ccc(F)c(F)c1)C(=O)NCc1ccc2c(N)nccc2c1 [Example 12.03] gave an IC50 [1] greater than 40 µM and an IC50 [2] of less than 0.03 µM.
In the case of CC(C)N[C@H](CCCN1CCCCC1)C(=O)N[C@@H](Cc1ccc(F)c(F)c1)C(=O)NCc1ccc2c(N)nccc2c1 [Example 12.04], the IC50 [1] is reported as 10 to 40 µM and the IC50 [2] is reported as 0.28 to 1 µM.
For CC(C)N[C@H](CCCCN1CCCCC1)C(=O)N[C@@H](Cc1c[nH]c2ccccc12)C(=O)NCc1ccc2c(N)nccc2c1 [Example 12.05], the IC50 [1] was 3 to 10 µM and the IC50 [2] was 0.03 to 0.1 µM.
CC(C)N[C@H](CCCCN1CCCCC1)C(=O)N[C@@H](Cc1cccc2ccccc12)C(=O)NCc1ccc2c(N)nccc2c1 [Example 12.06, (2R)—N-[(1S)-1-{[(1-Aminoisoquinolin-6-yl)methyl]carbamoyl}-2-(naphthalen-1-yl)ethyl]-2-(isopropylamino)-6-(piperidin-1-yl)hexanamide] gave an IC50 [1] of 3 to 10 µM and an IC50 [2] of less than 0.03 µM.
CC(C)N[C@H](CCCCN1CCCCC1)C(=O)N[C@@H](Cc1csc2ccccc12)C(=O)NCc1ccc2c(N)nccc2c1 [Example 12.07] showed an IC50 [1] of 1 to 3 µM and an IC50 [2] of less than 0.03 µM.
With CC(C)N[C@H](CCCCN1CCCCC1)C(=O)N[C@@H](Cc1ccc2ccccc2c1)C(=O)NCc1ccc2c(N)nccc2c1 [Example 12.08] the IC50 [1] was 10 to 40 µM and the IC50 [2] was 1 to 3 µM.
COc1ccc(C[C@H](NC(=O)[C@@H](CCCCN2CCCCC2)NC(C)C)C(=O)NCc2ccc3c(N)nccc3c2)cc1 [Example 12.09] gave an IC50 [1] greater than 40 µM and an IC50 [2] of 1 to 3 µM.
CC(C)N[C@H](CCCCN1CCCCC1)C(=O)N[C@@H](Cc1ccc(-c2ccccc2)cc1)C(=O)NCc1ccc2c(N)nccc2c1 [Example 12.10] was tested, and the IC50 [1] was greater than 40 µM and the IC50 [2] was 3 to 10 µM.
Nc1nccc2cc(CNC(=O)[C@H](Cc3ccc(F)c(F)c3)NC(=O)CCCCCN3CCCCC3)ccc12 [Example 12.11] gave an IC50 [1] greater than 40 µM and an IC50 [2] of 0.28 to 1 µM.
With Nc1nccc2cc(CNC(=O)[C@@H]3CCN3C(=O)[C@H](N)CCc3ccccc3)ccc12 [Example 17.05] the IC50 [1] was 10 to 40 µM and the IC50 [2] was 0.28 to 1 µM.
In the case of Nc1nccc2cc(CNC(=O)C3CC4CCC3N(C(=O)[C@H](N)CCc3ccccc3)C4)ccc12 (stereo partly shown) [Example 17.06], the IC50 [1] is reported as 1 to 3 µM and the IC50 [2] is reported as 3 to 10 µM.
Nc1nccc2cc(CNC(=O)[C@H]3CCC[C@@H]3NC(=O)[C@H](N)CCc3ccccc3)ccc12 [Example 17.07] showed an IC50 [1] of 3 to 10 µM and an IC50 [2] of 10 to 40 µM.
In the case of CN[C@H](CCc1ccccc1)C(=O)N1CC[C@H]1C(=O)NCc1ccc2c(N)nccc2c1 [Example 17.08], the IC50 [1] is reported as greater than 40 µM and the IC50 [2] is reported as 0.28 to 1 µM.
Work on CC(C)N[C@H](CCc1ccccc1)C(=O)N1CC[C@H]1C(=O)NCc1ccc2c(N)nccc2c1 [Example 17.09, (2S)—N-[(1-aminoisoquinolin-6-yl)methyl]-1-[(2R)-2-(isopropylamino)-4-phenylbutanoyl]azetidine-2-carboxamide] yielded an IC50 [1] of 10 to 40 µM and an IC50 [2] of 0.1 to 0.279 µM.
CC(C)N[C@H](CCCCN1CCCCC1)C(=O)N1CC[C@H]1C(=O)NCc1ccc2c(N)nccc2c1 [Example 17.10] gave an IC50 [1] greater than 40 µM and an IC50 [2] of 0.28 to 1 µM.
For CC(C)N[C@H](CCCN1CCCCC1)C(=O)N1CC[C@H]1C(=O)NCc1ccc2c(N)nccc2c1 [Example 17.11], the IC50 [1] was greater than 40 µM and the IC50 [2] was 0.28 to 1 µM.
